Columns and labels:
[1] = acute toxicity (LD50) in mice; format: in vivo, mouse (ICR)
leukemia L-1210 = assay: increase in life span and survival of leukemia L-1210 implanted mice; format: in vivo, mouse (BDF1)
Excerpt: (§1) Results of pharmacological studies for amino-glucopyranoside [I] according to the invention are described below. The test compounds which were used included methyl N-carbamyl-N'-(2-chloroethyl)-N'-nitroso-2-amino-2-deoxy-α-D-glucopyranoside and methyl N-carbamyl-N'-(2-chloroethyl)-N'-nitroso-6-amino-6-deoxy-α-D-glucopyranoside (hereinafter abbreviated to 2MCαG and 6MCαG, respectively). The control compounds which were employed were 1-(2-chloroethyl)-3-cyclohexyl-1-nitrosoourea (hereinafter abbreviated to CCNU), which had been widely applied as a control compound in such a pharmacological test of the streptozotocin derivatives, and GCNU referred to previously. The tumor systems which were used were leukemia L-1210, Nakahara-Fukuoka sarcoma, adenocarcinoma-755, ascites sarcoma 180 and Ehrlich ascites carcinoma (hereinafter abbreviated to L-1210, NFS, Ca-755, S-180A and EAC, respectively), and the antitumor activities were determined by a procedure of the National Cancer Center, Tokyo (A. Hoshi et al.: Farumashia 9, 464(1973)). The test animals which were used were ICR and BDF1 mice.
(§2) ^a Treatment was initiated 24 hr after implantation of tumor (day 1):
(§3) D1~5 = qd, day 1~5; D1 = day 1 only.
^d % increase in life span (mean survival time) over controls.
^e 60 days survivors/total in treated group.

[2] = system: Nakahara-Fukuoka sarcoma (NFS); assay: antitumor effect against Nakahara-Fukuoka sarcoma (NFS) implanted in mice; format: in vivo, mouse (ICR)
Excerpt: as §1, §2, §3
(§4) ^b T/C is expressed as the tumor weight ratio in solid tumors or tota
(§5) packed cell volume ratio in ascites tumors of treated/control.

[3] = blood sugar level / diabetogenic activity; format: in vivo, rat (male Wister); details: rat, in vivo
[4] = peripheral white blood cell counts (bone marrow toxicity) and survival in normal male ICR mice; format: in vivo, mouse (ICR)
Protocol: Such peripheral white blood cell counts were performed as follows: Normal male ICR mice were used in groups of tens and the test compounds for treatment were made into their respective solutions. 2MCαG and 6MCαG were dissolved in physiological saline solutions, while CCNU and GCNU were suspended in 0.5% CMC aqueous solution and 50% PEG aqueous solution, respectively. A single administration at volume of 1 ml per 100 g body weight of animal (0.1 ml/10 g) was given intraperitoneally, and the peripheral white blood cell counts were performed 3, 8 and 15 days after administration of the test compounds.

[5] = system: adenocarcinoma-755 (Ca-755); assay: antitumor effect against adenocarcinoma-755 (Ca-755) implanted in mice; format: in vivo, mouse (BDF1)
Excerpt: as §1, §2, §3, §4, §5

bacteria = assay: antibacterial activity, broth dilution method
[6] = system: solid as well as ascites tumor systems; assay: antitumor activity in the tumor systems (overall); format: in vivo, mouse
Excerpt: as §1

[7] = system: ascites sarcoma 180 (S-180A); assay: antitumor effect against ascites sarcoma 180 (S-180A) implanted in mice; format: in vivo, mouse (ICR)
Excerpt: as §1, §2, §3, §4, §5

[8] = system: Ehrlich ascites carcinoma (EAC); assay: antitumor effect against Ehrlich ascites carcinoma (EAC) implanted in mice; format: in vivo, mouse (ICR)
Excerpt: as §1, §2, §3, §4, §5

[9] = 12.5 mg/kg/day ip D1~5, ICR mice
[10] = 25.0 mg/kg/day ip D1~5, ICR mice
[11] = 35.0 mg/kg/day ip D1~5, ICR mice
[12] = 50.0 mg/kg/day ip D1~5, ICR mice
[13] = 6.3 mg/kg/day ip D1~5, BDF1 mice
[14] = 12.5 mg/kg/day ip D1~5, BDF1 mice
[15] = 25.0 mg/kg/day ip D1~5, BDF1 mice
[16] = 50.0 mg/kg/day ip D1~5, BDF1 mice
[17] = 3.2 mg/kg/day ip, 5 successive days

CO[C@H]1O[C@H](CNC(=O)N(CCCl)N=O)[C@@H](O)[C@H](O)[C@H]1O [Example 6MCαG, methyl N-carbamyl-N'-(2-chloroethyl)-N'-nitroso-6-amino-6-deoxy-α-D-glucopyranoside]
toxicity compared with 2MCαG ([1]; by LD50, single administration): less toxic than 2MCαG
LD50 ([1]; mouse, in vivo, single administration): 91 mg/kg
ILS (leukemia L-1210; 3.0 mg/kg/day ip D1~5): > 292%
Survivors (60 days survivors/total) (leukemia L-1210; 3.0 mg/kg/day ip D1~5): 2/6
ILS (leukemia L-1210; 6.0 mg/kg/day ip D1~5): > 639%
Survivors (60 days survivors/total) (leukemia L-1210; 6.0 mg/kg/day ip D1~5): 3/6
ILS (leukemia L-1210; 6.0 mg/kg/day po D1~5): > 580%
Survivors (60 days survivors/total) (leukemia L-1210; 6.0 mg/kg/day po D1~5): 4/6
ILS (leukemia L-1210; 10.0 mg/kg/day ip D1~5): > 645%
Survivors (60 days survivors/total) (leukemia L-1210; 10.0 mg/kg/day ip D1~5): 3/6
ILS (leukemia L-1210; 12.5 mg/kg/day ip D1~5): > 520%
Survivors (60 days survivors/total) (leukemia L-1210; 12.5 mg/kg/day ip D1~5): 4/6
ILS (leukemia L-1210; 12.5 mg/kg/day po D1~5): > 570%
Survivors (60 days survivors/total) (leukemia L-1210; 12.5 mg/kg/day po D1~5): 4/6
ILS (leukemia L-1210; 25.0 mg/kg/day ip D1~5): > 615%
Survivors (60 days survivors/total) (leukemia L-1210; 25.0 mg/kg/day ip D1~5): 4/6
ILS (leukemia L-1210; 25.0 mg/kg/day po D1~5): > 620%
Survivors (60 days survivors/total) (leukemia L-1210; 25.0 mg/kg/day po D1~5): 4/6
ILS (leukemia L-1210; 35.0 mg/kg ip D1 only): > 717%
Survivors (60 days survivors/total) (leukemia L-1210; 35.0 mg/kg ip D1 only): 6/6
ILS (leukemia L-1210; 40.0 mg/kg/day ip D1~5): > 237%
Survivors (60 days survivors/total) (leukemia L-1210; 40.0 mg/kg/day ip D1~5): 2/6
ILS (leukemia L-1210; 45.0 mg/kg ip D1 only): > 717%
Survivors (60 days survivors/total) (leukemia L-1210; 45.0 mg/kg ip D1 only): 6/6
ILS (leukemia L-1210; 6-25 mg/kg/day, 5 successive administrations, ip or orally): 520-645%
activity against L-1210 compared with CCNU and GCNU (leukemia L-1210; mouse, in vivo): more active against L-1210
ILS (leukemia L-1210; single ip, 35-45 mg/kg): 717%
animals survived (leukemia L-1210; single ip, 35-45 mg/kg): all six animals survived
Activity [2, 9]: - (100~71% = -)
T/C [2, 9]: 77.8%
Activity [2, 10]: + (70~51% = +)
T/C [2, 10]: 61.6%
Activity [2, 11]: ++ (50~21% = ++)
T/C [2, 11]: 38.8%
Activity [2, 12]: Toxic
T/C [2, 12]: 34.1%
died/used [2, 12]: 6/6
antitumor effect compared with CCNU ([2]; ip, 5 successive days): more active than CCNU
diabetogenic activity [3]: free from diabetogenic
Death rate (death/used) ([4]; 40 mg/kg ip single): 0/10
Average count of WBC ([4]; 40 mg/kg ip single, day 3): 73.2±3.5 x 10^2 WBC/mm^3
Average count of WBC ([4]; 40 mg/kg ip single, day 8): 105.7±3.8 x 10^2 WBC/mm^3
Average count of WBC ([4]; 40 mg/kg ip single, day 15): 136.9±10.0 x 10^2 WBC/mm^3
Death rate (death/used) ([4]; 60 mg/kg ip single): 0/10
Average count of WBC ([4]; 60 mg/kg ip single, day 3): 41.1±4.1 x 10^2 WBC/mm^3
Average count of WBC ([4]; 60 mg/kg ip single, day 8): 73.5±5.8 x 10^2 WBC/mm^3
Average count of WBC ([4]; 60 mg/kg ip single, day 15): 110.4±6.3 x 10^2 WBC/mm^3
Death rate (death/used) ([4]; 100 mg/kg ip single): 2/10
Average count of WBC ([4]; 100 mg/kg ip single, day 3): 31.2±2.5 x 10^2 WBC/mm^3
Average count of WBC ([4]; 100 mg/kg ip single, day 8): 71.9±4.9 x 10^2 WBC/mm^3
Average count of WBC ([4]; 100 mg/kg ip single, day 15): 99.8±10.8 x 10^2 WBC/mm^3
Death rate (death/used) ([4]; 150 mg/kg ip single): 10/10
Average count of WBC ([4]; 150 mg/kg ip single, day 3): 28.1±3.8 x 10^2 WBC/mm^3
Average count of WBC ([4]; 150 mg/kg ip single, day 8): 61.0 x 10^2 WBC/mm^3
incidence of leukopenia ([4]; LD10 doses): comparatively mild with rapid return to pretreatment levels
acute toxicity compared with GCNU or CCNU ([4]; mouse, in vivo): much lower than that of either GCNU or CCNU
bone marrow toxicity ([4]; mouse, in vivo): improved bone marrow toxicity
bone marrow toxicity compared with CCNU ([4]; mouse, in vivo): less toxic
bone marrow toxicity compared with GCNU ([4]; mouse, in vivo): equivalent values as GCNU
Activity [5, 13]: + (70~51% = +)
T/C [5, 13]: 53.4%
Activity [5, 14]: +++ (20~0% = +++)
T/C [5, 14]: 16.3%
Activity [5, 15]: +++ (20~0% = +++)
T/C [5, 15]: 7.6%
Activity [5, 16]: Toxic
T/C [5, 16]: 0%
died/used [5, 16]: 6/6
antitumor effect compared with CCNU ([5]; ip, 5 successive days): more active than CCNU
antibacterial activity (bacteria): free from diabetogenic and antibacterial activities
antitumor activity ([6]; mouse, in vivo): activity against solid as well as ascites tumor systems

CO[C@@H]1O[C@H](CO)[C@@H](O)[C@H](O)[C@H]1NC(=O)N(CCCl)N=O [Example 4, methyl N-carbamyl-N'-(2-chloroethyl)-N'-nitroso-2-amino-2-deoxy-β-D-glucopyranoside]
ILS (leukemia L-1210; 3.2 mg/kg/day ip D1~5): 480%
ILS (leukemia L-1210; 6.3 mg/kg/day po D1~5): 385%
60-days survivors (leukemia L-1210; single ip, 8~25 mg/kg): all six test animals surviving after 60-days
ILS (leukemia L-1210; single ip, 8~25 mg/kg): 717%
accumulation of ascites tumor cells [7, 17]: ascites cells accumulation was not detectable
Activity [7, 9]: ++ or +++
Activity [2, 9]: ++ or +++
diabetogenic activity [3]: not found to be either diabetogenic
bone marrow toxicity, less than the α-anomer ([4]; LD10 dosage): 5~20%
peripheral white blood cell count, higher than that of the α-anomer ([4]; LD10 dosage, 3, 8 and 15 days): 5~20%
Activity [5, 14]: ++ or +++
antibacterial activity (bacteria): not found to be either diabetogenic or exhibited any antibacterial activities
accumulation of ascites tumor cells [8, 17]: ascites cells accumulation was not detectable
Activity [8, 9]: ++ or +++
antitumor activity compared with its α-anomer ([6]; vs α-anomer): 110~120%

— US4057684A, “Alkyl amino-glucopyranoside derivative and process for producing the same” (priority 1975, dated 1977)
